The compounds below were run against human MGAT-2 (Homo sapiens (Human), UniProt Q3SYC2) (assay: MGAT LCMS assay (h-MGAT LCMS)). Conditions: human MGAT2.
Type: biochemical
Protocol: The MGAT enzyme reactions were performed in Corning FALCON® 96-well polypropylene plates, in a total volume of 60 μL of 50 mM potassium phosphate buffer pH 7.4, containing a final concentration of 100 μM 2-oleoylglycerol, 15 μM oleoyl-coenzyme A and 0.0013 μg/μL human or mouse MGAT-2 or 0.0026 μg/μL rat recombinant MGAT-2 membranes expressed in Sf9 cells. Assay plates were run through a fully automated robotics system and shaken for 5 seconds every minute for a total 10 minutes. The reactions were then quenched with 120 μL of ice cold methanol containing 1 μg/mL 1,2-distearoyl-rac-glycerol as the internal standard. Plates were shaken for 2 minutes and spun down to remove protein precipitation. After the spin, samples were transferred to LC/MS compatible PCR plates. For LC/MS analysis, a ThermoFisher Surveyor pump, utilizing a Waters […]® C8, 50×2.1 mm column, was used for the chromatography of enzyme products. The buffer system consists of 0.1% formic acid in water with a mobile phase consisting 0.1% formic acid in methanol. The shallow gradient is 90-100% mobile phase in 0.2 min with a total run time of 2.3 min. The first 0.5 minutes of each injection was diverted to waste to eliminate the presence of phosphate buffer in the enzymatic reaction. The column was run at 0.6 mL/min and a temperature of 65° C. Mass spectrometry analysis of the samples was performed on a ThermoFisher Quantum Triple quad utilizing APCI (+) as the mode of ionization. Data was acquired in Single Ion Monitoring (SIM) mode analyzing Diolein=m/z 603.6 (PRODUCT) and 1,2-distearoyl-rac-glycerol (IS)=m/z 607.6. The ratio of Diolein to internal standard (Peak Area Ratio) is utilized to calculate IC50 values.
“NT” denotes “Not tested”.

human MGAT-2, sequence (Q3SYC2 whole entry): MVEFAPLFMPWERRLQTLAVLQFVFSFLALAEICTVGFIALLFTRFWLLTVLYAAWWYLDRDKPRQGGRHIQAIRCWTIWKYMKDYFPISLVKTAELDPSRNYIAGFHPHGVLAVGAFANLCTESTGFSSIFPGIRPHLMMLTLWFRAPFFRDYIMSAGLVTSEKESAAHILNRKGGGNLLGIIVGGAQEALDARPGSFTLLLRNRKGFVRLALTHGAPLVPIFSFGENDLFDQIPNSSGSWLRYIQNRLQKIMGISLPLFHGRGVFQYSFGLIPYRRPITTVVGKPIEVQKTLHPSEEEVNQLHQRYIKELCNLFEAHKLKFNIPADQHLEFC

IC50	Structure (SMILES)
2000 to 10000 nM	Cc1csc(C2=C(c3nnn[nH]3)C(=O)N[C@@](c3ccc(OCCCC(F)(F)F)cc3)(C(F)(F)F)C2)c1 [Example 10]

Same assay, conditions: human MGAT2 membranes expressed in Sf9 cells; 100 μM 2-oleoylglycerol, 15 μM oleoyl-coenzyme A

Structure (SMILES)	IC50
O=C1N[C@@](c2ccc(OCCCC(F)(F)F)cc2)(C(F)(F)F)CC(c2ccc(C3CC3)s2)=C1c1nnn[nH]1 [Example 1, (S)-4-(5-Cyclopropylthiophen-2-yl)-3-(1H-tetrazol-5-yl)-6-(4-(4,4,4-trifluorobutoxy)phenyl)-6-(trifluoromethyl)-5,6-dihydropyridin-2(1H)-one]	2.5 nM
Cc1ccc(C2=C(c3nnn[nH]3)C(=O)N[C@@](c3ccc(OCCCC(F)(F)F)cc3)(C(F)(F)F)C2)s1 [Example 2]	41 nM
O=C1N[C@@](c2ccc(OCCCC(F)(F)F)cc2)(C(F)(F)F)CC(c2ccc(Cl)s2)=C1c1nnn[nH]1 [Example 3]	370 nM
CCc1ccc(C2=C(c3nnn[nH]3)C(=O)N[C@@](c3ccc(OCCCC(F)(F)F)cc3)(C(F)(F)F)C2)s1 [Example 9]	32 nM
Cc1ccsc1C1=C(c2nnn[nH]2)C(=O)N[C@@](c2ccc(OCCCC(F)(F)F)cc2)(C(F)(F)F)C1 [Example 11]	873 nM
CN(C)Cc1ccc(C2=C(c3nnn[nH]3)C(=O)N[C@@](c3ccc(OCCCC(F)(F)F)cc3)(C(F)(F)F)C2)s1 [Example 12]	363 nM
CN(C)c1ccc(C2=C(c3nnn[nH]3)C(=O)N[C@@](c3ccc(OCCCC(F)(F)F)cc3)(C(F)(F)F)C2)cn1 [Example 14]	72.1 nM
O=C1N[C@@](c2ccc(OCCCCCC(F)(F)F)cc2F)(C(F)(F)F)CC(c2ccn(C3CC3)n2)=C1c1nnn[nH]1 [Example 16]	34 nM
O=C1N[C@@](c2ccc(OCCCC(F)(F)F)cc2)(C(F)(F)F)CC(c2cnn(C3CC3)c2)=C1c1nnn[nH]1 [Example 18]	24.5 nM
O=C1N[C@@](c2ccc(OCCCC(F)(F)F)cc2)(C(F)(F)F)CC(c2ccn(CC3CC3)n2)=C1c1nnn[nH]1 [Example 19]	31.8 nM
O=C1N[C@@](c2ccc(OCCCC(F)(F)F)cc2)(C(F)(F)F)CC(c2ccn(C3CCC3)n2)=C1c1nnn[nH]1 [Example 20]	74.7 nM
O=C1N[C@@](c2ccc(OCCCC(F)(F)F)cc2)(C(F)(F)F)CC(c2ccn(CC3CCC3)n2)=C1c1nnn[nH]1 [Example 21]	135 nM
O=C1N[C@@](c2ccc(CCCCC(F)(F)F)cc2)(C(F)(F)F)CC(c2ccn(C3CC3)n2)=C1c1nnn[nH]1 [Example 24]	22.9 nM
O=C1N[C@@](c2ccc(OCCCCCC(F)(F)F)cc2)(C(F)(F)F)CC(c2ccn(C3CC3)n2)=C1c1nnn[nH]1 [Example 25]	102 nM
CC(C)n1ccc(C2=C(c3nnn[nH]3)C(=O)N[C@@](c3ccc(OCCCCCC(F)(F)F)cc3)(C(F)(F)F)C2)n1 [Example 26]	43.7 nM
CC(C)(C)n1ccc(C2=C(c3nnn[nH]3)C(=O)N[C@@](c3ccc(OCCCCCC(F)(F)F)cc3)(C(F)(F)F)C2)n1 [Example 27]	185 nM
CCn1ccc(C2=C(c3nnn[nH]3)C(=O)N[C@@](c3ccc(OCCCCCC(F)(F)F)cc3)(C(F)(F)F)C2)n1 [Example 29]	52.1 nM
CC(C)Cn1ccc(C2=C(c3nnn[nH]3)C(=O)N[C@@](c3ccc(OCCCCCC(F)(F)F)cc3)(C(F)(F)F)C2)n1 [Example 31]	61.9 nM
CC(C)n1nc(C2=C(c3nnn[nH]3)C(=O)N[C@@](c3ccc(OCCCCCC(F)(F)F)cc3)(C(F)(F)F)C2)c2ccccc21 [Example 33]	950 nM
CC(C)n1cc(C2=C(c3nnn[nH]3)C(=O)N[C@@](c3ccc(OCCCCCC(F)(F)F)cc3)(C(F)(F)F)C2)c2ccccc21 [Example 34]	86.9 nM
Cc1cnc(C2=C(c3nnn[nH]3)C(=O)N[C@@](c3ccc(OCCCC(F)(F)F)cc3)(C(F)(F)F)C2)nc1 [Example 38]	34.3 nM
O=C1N[C@@](c2ccc(OCCCC(F)(F)F)cc2F)(C(F)(F)F)CC(c2ccn(C3CC3)n2)=C1c1nnn[nH]1 [Example 41]	73.6 nM
CCn1ccc(C2=C(c3nnn[nH]3)C(=O)N[C@@](c3ccc(OCCCC(F)(F)F)cc3F)(C(F)(F)F)C2)n1 [Example 43]	20.2 nM
CC(C)n1ccc(C2=C(c3nnn[nH]3)C(=O)N[C@@](c3ccc(CCCCC(F)(F)F)cc3F)(C(F)(F)F)C2)n1 [Example 46]	11.4 nM
CC(C)Cn1ccc(C2=C(c3nnn[nH]3)C(=O)N[C@@](c3ccc(OCCCC(F)(F)F)cc3F)(C(F)(F)F)C2)n1 [Example 51]	97.4 nM

Other lines, results leading:

IC50	Structure (SMILES)
7.8 nM	CCCCCCC#C[C@]1(C(F)(F)F)CC(c2ccc(Cl)s2)=C(c2nnn[nH]2)C(=O)N1 [Example 5]
2.2 nM	CCCCCCC#C[C@]1(C(F)(F)F)CC(c2ccc(Br)s2)=C(c2nnn[nH]2)C(=O)N1 [Example 6]
9 nM	O=C1N[C@@](c2ccc(OCCCC(F)(F)F)cc2)(C(F)(F)F)CC(c2cc3ccccc3s2)=C1c1nnn[nH]1 [Example 7]
19.4 nM	Cc1cnc(C2=C(c3nnn[nH]3)C(=O)N[C@@](c3ccc(OCCCC(F)(F)F)cc3)(C(F)(F)F)C2)s1 [Example 13]
14.5 nM	O=C1N[C@@](c2ccc(OCCCCCC(F)(F)F)cc2F)(C(F)(F)F)CC(c2cnn(C3CC3)c2)=C1c1nnn[nH]1 [Example 15]
16.6 nM	O=C1N[C@@](c2ccc(OCCCC(F)(F)F)cc2)(C(F)(F)F)CC(c2ccn(C3CC3)n2)=C1c1nnn[nH]1 [Example 17]
1.2 nM	O=C1N[C@@](c2ccc(CCCCC(F)(F)F)cc2)(C(F)(F)F)CC(c2ccn(CC3CC3)n2)=C1c1nnn[nH]1 [Example 22]
2.1 nM	CC(C)n1ccc(C2=C(c3nnn[nH]3)C(=O)N[C@@](c3ccc(CCCCC(F)(F)F)cc3)(C(F)(F)F)C2)n1 [Example 23]
17.6 nM	CN(C)c1ccc(C2=C(c3nnn[nH]3)C(=O)N[C@@](c3ccc(OCCCC(F)(F)F)cc3)(C(F)(F)F)C2)nc1 [Example 28]
2.7 nM	O=C1N[C@@](c2ccc(OCCCCCC(F)(F)F)cc2)(C(F)(F)F)CC(c2ccn(CC3CC3)n2)=C1c1nnn[nH]1 [Example 30]
11.5 nM	CN(C)c1cnc(C2=C(c3nnn[nH]3)C(=O)N[C@@](c3ccc(OCCCC(F)(F)F)cc3)(C(F)(F)F)C2)s1 [Example 35]
16.6 nM	CC(C)n1ccc(C2=C(c3nnn[nH]3)C(=O)N[C@@](c3ccc(OCCCC(F)(F)F)cc3F)(C(F)(F)F)C2)n1 [Example 39]
6.7 nM	O=C1N[C@@](c2ccc(OCCCC(F)(F)F)cc2F)(C(F)(F)F)CC(c2ccn(C3CCC3)n2)=C1c1nnn[nH]1 [Example 40]
3 nM	O=C1N[C@@](c2ccc(CCCCC(F)(F)F)cc2F)(C(F)(F)F)CC(c2ccn(CC3CC3)n2)=C1c1nnn[nH]1 [Example 42]
15.2 nM	O=C1N[C@@](c2ccc(OCCCCC(F)(F)F)cc2)(C(F)(F)F)CC(c2ccc(C3CC3)s2)=C1c1nnn[nH]1 [Example 44]
3.5 nM	CN(C)c1cnc(C2=C(c3nnn[nH]3)C(=O)N[C@@](c3ccc(OCCCCC(F)(F)F)cc3)(C(F)(F)F)C2)s1 [Example 45]
2.7 nM	O=C1N[C@@](c2ccc(CCCCC(F)(F)F)cc2F)(C(F)(F)F)CC(c2ccn(C3CCC3)n2)=C1c1nnn[nH]1 [Example 47]
4.5 nM	CCn1ccc(C2=C(c3nnn[nH]3)C(=O)N[C@@](c3ccc(CCCCC(F)(F)F)cc3F)(C(F)(F)F)C2)n1 [Example 49]
9.4 nM	CC(C)Cn1ccc(C2=C(c3nnn[nH]3)C(=O)N[C@@](c3ccc(CCCCC(F)(F)F)cc3F)(C(F)(F)F)C2)n1 [Example 50]

— patent US9701672B2, “Dihydropyridinone MGAT2 inhibitors for use in the treatment of metabolic disorders” (BRISTOL-MYERS SQUIBB COMPANY, priority 2014, dated 2017)
